In patent publication US20070197599A1, “HYDROXYLAMINES AND DERIVATIVES AS ANTI-ANGIOGENIC AGENTS” (priority 2006, published 2007):
Read-outs that look alike come from different tables or passages of the source.

Key:
[1] = In vitro stability of Compound 1 in rabbit plasma; assay type: in vitro ADME; conditions: for Concentration of Compound 1 in plasma: 1000 ng/mL added; for half-life at 1000 ng/mL: rabbit, pooled rabbit plasma
Description: (§1) The active metabolite of Compound 1 (Cyclopropanecarboxylic acid 1-hydroxy-2,2,6,6-tetramethyl-piperidin-4-yl ester) is TPH. The objective of this analysis was to determine the in vitro half-life of Compound 1 in rat, rabbit, dog, and human plasma under standardized incubation conditions.
(§2) Compound 1 was incubated with pooled rat, rabbit, dog, and human plasma for various times under standardized incubation conditions. Pre-labeled tubes containing pooled plasma from rats, rabbits, dogs, and humans were pre-incubated in a shaking 37° C. water bath. A Compound 1 solution was added to the tubes at a final concentration of 1000 ng/mL. Time zero samples (n=5) were immediately removed and transferred into tubes containing a stabilizer solution (DTPA, acetylcysteine and ascorbic acid), the LC/MS/MS assay internal standard and methanol. […] The tubes were vortexed, placed on ice, followed by centrifugation. One hundred-μL aliquots of the supernatant were transferred into HPLC sample vials. Additional tubes (n=5 at each time point) were incubated for 5, 10, 20, 30, 60, 120, and 240 minutes at 37° C. and thereafter processed. The amount of Compound 1 and TPH in each incubated sample was quantified using validated LC/MS/MS assays.

[2] = In vitro stability of Compound 1 in dog plasma; assay type: in vitro ADME; conditions: for Concentration of Compound 1 in plasma: 1000 ng/mL added; for half-life at 1000 ng/mL: dog, pooled dog plasma
Description: as §1, §2

[3] = In vitro stability of Compound 1 in rat plasma; assay type: in vitro ADME; conditions: for Concentration of Compound 1 in plasma: 1000 ng/mL added; for half-life at 1000 ng/mL: rat, pooled rat plasma
Description: as §1, §2

[4] = Single-dose 10-minute intravenous infusion toxicokinetics in Sprague-Dawley rats; assay type: in vivo; conditions: for Cmax: in vivo, read-out: Cmax of Compound 1; for Cmax / Tmax: 10-minute iv infusion; for concentration at 0.167 hr: 0.167 hr from start of infusion; for Tmax: read-out: Tmax of Compound 1
Description: Blood for toxicokinetic evaluations was collected at pre-determined time points during and after the infusion.
All pharmacokinetic analyses were performed using Kinetica®, version 4.2 (Innaphase, Philadelphia, Pa.).
Cmax is the observed maximum plasma concentration
Tmax is the time Cmax is reached
T1/2 is the elimination half-life
The plasma concentrations were rounded to the nearest tenth of a ng/mL before the calculations. […] Nominal time points were used for all calculations.

[5] = In vitro stability of Compound 1 in human plasma; assay type: in vitro ADME; conditions: for Concentration of Compound 1 in plasma: 1000 ng/mL added; for half-life at 1000 ng/mL: human, pooled human plasma
Description: as §1, §2

[6] = average, read-out: in vitro half-life

CC1(C)CC(OC(=O)C2CC2)CC(C)(C)N1O.Cl [Compound 1, 1-hydroxy-4-cyclopropanecarbonyloxy-2,2,6,6-tetramethylpiperidine hydrochloride]
Concentration of Compound 1 in plasma ([1]; 37° C., incubation 0 min): 502.75 ± 74.66 ng/mL | Concentration of Compound 1 in plasma ([1]; 37° C., incubation 5 min): 14.56 ± 3.35 ng/mL | Concentration of Compound 1 in plasma ([1]; 37° C., incubation 10 min): 0.00 ± 0.00 ng/mL | Concentration of Compound 1 in plasma ([1]; 37° C., incubation 20 min): 0.00 ± 0.00 ng/mL | Concentration of Compound 1 in plasma ([1]; 37° C., incubation 30 min): 0.00 ± 0.00 ng/mL | Concentration of Compound 1 in plasma ([1]; 37° C., incubation 60 min): 0.00 ± 0.00 ng/mL | Concentration of Compound 1 in plasma ([1]; 37° C., incubation 120 min): 0.00 ± 0.00 ng/mL | Concentration of Compound 1 in plasma ([1]; 37° C., incubation 240 min): 0.00 ± 0.00 ng/mL | half-life at 1000 ng/mL [1, 6]: 1 min | half-life at 1000 ng/mL ([1]; in vitro, 37° C., read-out: T½): 0.98 min | Concentration of Compound 1 in plasma ([2]; 37° C., incubation 0 min): 771.12 ± 21.68 ng/mL | Concentration of Compound 1 in plasma ([2]; 37° C., incubation 5 min): 804.93 ± 17.45 ng/mL | Concentration of Compound 1 in plasma ([2]; 37° C., incubation 10 min): 811.14 ± 21.06 ng/mL | Concentration of Compound 1 in plasma ([2]; 37° C., incubation 20 min): 809.01 ± 18.58 ng/mL | Concentration of Compound 1 in plasma ([2]; 37° C., incubation 30 min): 789.53 ± 13.73 ng/mL | Concentration of Compound 1 in plasma ([2]; 37° C., incubation 60 min): 717.22 ± 25.73 ng/mL | Concentration of Compound 1 in plasma ([2]; 37° C., incubation 120 min): 608.14 ± 25.96 ng/mL | Concentration of Compound 1 in plasma ([2]; 37° C., incubation 240 min): 428.20 ± 12.03 ng/mL | half-life at 1000 ng/mL ([2]; average, read-out: in vitro half-life (converted)): 240 min | half-life at 1000 ng/mL ([2]; in vitro, 37° C., read-out: T½): 240 min | Concentration of Compound 1 in plasma ([3]; 37° C., incubation 0 min): 806.50 ± 86.77 ng/mL | Concentration of Compound 1 in plasma ([3]; 37° C., incubation 5 min): 770.32 ± 20.66 ng/mL | Concentration of Compound 1 in plasma ([3]; 37° C., incubation 10 min): 745.77 ± 15.50 ng/mL | Concentration of Compound 1 in plasma ([3]; 37° C., incubation 20 min): 682.88 ± 16.94 ng/mL | Concentration of Compound 1 in plasma ([3]; 37° C., incubation 30 min): 613.79 ± 25.84 ng/mL | Concentration of Compound 1 in plasma ([3]; 37° C., incubation 60 min): 480.48 ± 10.69 ng/mL | Concentration of Compound 1 in plasma ([3]; 37° C., incubation 120 min): 277.94 ± 5.55 ng/mL | Concentration of Compound 1 in plasma ([3]; 37° C., incubation 240 min): 80.70 ± 2.02 ng/mL | half-life at 1000 ng/mL [3, 6]: 70 min | half-life at 1000 ng/mL ([3]; in vitro, 37° C., read-out: T½): 69.5 min | plasma level of Compound 1 at one hour after termination of the infusion ([4]; 10 mg/kg): not quantifiable | Cmax ([4]; both sexes, Sprague-Dawley, rat, 10 mg/kg): 980 ng/mL | Cmax ([4]; both sexes, Sprague-Dawley, rat, 30 mg/kg): 3490 ng/mL | Cmax ([4]; both sexes, Sprague-Dawley, rat, 100 mg/kg): 29000 ng/mL | Cmax ([4]; both sexes, Sprague-Dawley, rat, 200 mg/kg): 89700 ng/mL | concentration at 0.167 hr ([4]; both sexes, Sprague-Dawley, rat, plasma, 10 mg/kg iv infusion, read-out: Plasma concentration of Compound 1): 980 ± 311 ng/mL | concentration at 1.167 hr ([4]; both sexes, Sprague-Dawley, rat, plasma, 10 mg/kg iv infusion, 1.167 hr, below 50 ng/mL assigned zero, read-out: Plasma concentration of Compound 1): 0 ng/mL | concentration at 2.167 hr ([4]; both sexes, Sprague-Dawley, rat, plasma, 10 mg/kg iv infusion, 2.167 hr, below 50 ng/mL assigned zero, read-out: Plasma concentration of Compound 1): 0 ng/mL | concentration at 4.167 hr ([4]; both sexes, Sprague-Dawley, rat, plasma, 10 mg/kg iv infusion, below 50 ng/mL assigned zero, read-out: Plasma concentration of Compound 1): 0 ng/mL | Tmax ([4]; both sexes, Sprague-Dawley, rat, plasma, 10 mg/kg): 10 min | concentration at 0.167 hr ([4]; both sexes, Sprague-Dawley, rat, plasma, 30 mg/kg iv infusion, read-out: Plasma concentration of Compound 1): 3490 ± 809 ng/mL | concentration at 4.167 hr ([4]; both sexes, Sprague-Dawley, rat, plasma, 30 mg/kg iv infusion, below 50 ng/mL assigned zero, read-out: Plasma concentration of Compound 1): 0 ng/mL | Tmax ([4]; both sexes, Sprague-Dawley, rat, plasma, 30 mg/kg): 10 min | concentration at 0.167 hr ([4]; both sexes, Sprague-Dawley, rat, plasma, 100 mg/kg iv infusion, read-out: Plasma concentration of Compound 1): 29000 ± 15100 ng/mL | concentration at 4.167 hr ([4]; both sexes, Sprague-Dawley, rat, plasma, 100 mg/kg iv infusion, below 50 ng/mL assigned zero, read-out: Plasma concentration of Compound 1): 0 ng/mL | Tmax ([4]; both sexes, Sprague-Dawley, rat, plasma, 100 mg/kg): 10 min | concentration at 0.167 hr ([4]; both sexes, Sprague-Dawley, rat, plasma, 200 mg/kg iv infusion, read-out: Plasma concentration of Compound 1): 89700 ± 18100 ng/mL | concentration at 4.167 hr ([4]; both sexes, Sprague-Dawley, rat, plasma, 200 mg/kg iv infusion, below 50 ng/mL assigned zero, read-out: Plasma concentration of Compound 1): 0 ng/mL | Tmax ([4]; both sexes, Sprague-Dawley, rat, plasma, 200 mg/kg): 10 min | clearance of Compound 1 in rats ([4]; suggested by the results, half-life not determinable): very rapid | plasma levels of Compound 1 at four hours after termination of the infusion ([4]; three higher dosages of 30 to 200 mg/kg): not quantifiable | Concentration of Compound 1 in plasma ([5]; 37° C., incubation 0 min): 775.47 ± 22.50 ng/mL | Concentration of Compound 1 in plasma ([5]; 37° C., incubation 5 min): 593.43 ± 7.55 ng/mL | Concentration of Compound 1 in plasma ([5]; 37° C., incubation 10 min): 503.18 ± 20.90 ng/mL | Concentration of Compound 1 in plasma ([5]; 37° C., incubation 20 min): 394.69 ± 6.72 ng/mL | Concentration of Compound 1 in plasma ([5]; 37° C., incubation 30 min): 316.37 ± 7.67 ng/mL | Concentration of Compound 1 in plasma ([5]; 37° C., incubation 60 min): 162.41 ± 9.77 ng/mL | Concentration of Compound 1 in plasma ([5]; 37° C., incubation 120 min): 32.22 ± 2.63 ng/mL | Concentration of Compound 1 in plasma ([5]; 37° C., incubation 240 min): 0.00 ± 0.00 ng/mL | half-life at 1000 ng/mL [5, 6]: 28 min | half-life at 1000 ng/mL ([5]; in vitro, 37° C., read-out: T½): 27.8 min
